Data: patent US20220202912A1, “Polypeptides in Preparation of Drugs for Treatment or Prevention of Rheumatoid Arthritis” (priority 2011, published 2022)

Assays:
Format in all cases: in vivo, BALB/c transgenic TNF-luc mice
[1] = test system: λ-carrageenan acute inflammation; assay: acute toe swelling in carrageenan-induced transgenic TNF-luc mice; settings: Adalimumab 8 mg/kg, mPEG-SC20k-HM-3 20 mg/kg sc
Method: Before modeling, 8 animals are randomly divided into 4 groups (n=2), a normal group, a model group, a positive drug group and a test treatment group. One hour before modeling, the normal group and the model group are hypodermically injected with normal saline (0.2 mL/20 g of body weight) respectively; the positive drug group is hypodermically injected with Adalimumab (8 mg/kg of body weight), 15 d/time, once; and the test treatment group is hypodermically injected with mPEG-SC20k-HM-3 (20 mg/kg of body weight), 2 d/time, twice. The initial ankle width, foot palm width and toe thickness of the left foot are measured as initial values.
Modeling starts at hour 0, 50 μL of 1% carrageenan is hypodermically injected into the bottom of left toe of transgenic TNF-luc mice, and the ankle swelling degree, foot palm swelling degree and toe swelling degree of each group of mice are measured with a vernier caliper at […], hour 1, hour 3, hour 5, hour 7, hour 9, hour 12, hour 24, hour 48, hour 72 and hour 96 respectively. Method for calculating toe swelling degree:
Swelling degree of left ankle (cm)=swelling thickness of left ankle during measurement−thickness of left ankle during initial measurement.
Swelling degree of left foot palm (cm)=swelling thickness of left foot palm during measurement−thickness of left foot palm during initial measurement.
Swelling degree of left toe (cm)=swelling thickness of left toe during measurement−thickness of left toe during initial measurement.

[2] = test system: AIA transgenic TNF-luc mice; assay: adjuvant-induced arthritis in transgenic TNF-luc mice (swelling, scores, weight, HE staining); parameters: right ankle swelling / left ankle swelling / left toe swelling / right toe swelling / changes of weight (added value): unit not given here; settings: Adalimumab 8 mg/kg
Method: 8 animals are randomly divided into 4 groups (n=2), a normal group, a model group, a positive drug group and a test group. On day 0, the initial left and right ankle thicknesses, initial left and right foot palm thicknesses and initial left and right toe thicknesses of each group of mice are measured. On day 0, 50 μL/mouse complete Freund's adjuvant is injected into the bottom of the left toe of each group of mice, and the treatment is started after secondary inflammation appears in the right foot of each group of mice on day 17. On day 17, the normal group and the model group are hypodermically injected with 0.9% normal saline (0.2 mL/20 g of body weight), once every 2 days, 7 times in total. The positive drug Adalimumab group is hypodermically injected with Adalimumab (8 mg/kg of body weight), once every 15 days, once in total. The test group is hypodermically injected with mPEG-SC20k-HM-3 (20 mg/kg of body weight), once every 2 days, 7 times in total. The treatment lasts for 15 days. Then, medication is stopped for observation for one week, and the mice are killed one week later.
On day 0, the initial ankle widths, foot palm widths and toe thicknesses of left and right feet are measured with a vernier caliper as initial values. Every 2 days, the left and right ankle widths, foot palm widths and toe thicknesses of each group of mice are measured separately with the vernier caliper, and compared with the initial values to calculate the changes in the swelling degree.
The joints of the mouse paw are observed with naked eyes, and the joints are scored every 2 days from day 17. Scoring is performed in terms of level 0 to level 4, 5 levels in total.
After the secondary inflammation appears, systemic scoring is performed every 2 days.
(§1) Changes of expression of TNF-α and IL-6 are analyzed by HE staining and immunohistochemistry in the ankle joint, spleen and thymus of the mice. Observation and photographing are performed under the FOVs of ×200 and ×400 times respectively, 5 FOVs are taken randomly for each picture, and data statistics is performed.

IL-6 = assay: immunohistochemistry of IL-6 in spleen and thymus, AIA transgenic TNF-luc mice; settings: Adalimumab 8 mg/kg, mPEG-SC20k-HM-3 20 mg/kg
Method: as §1

[3] = 0 d, before treatment (starts day 17), mPEG-SC20k-HM-3 20 mg/kg groups
[4] = 1 d, before treatment (starts day 17), mPEG-SC20k-HM-3 20 mg/kg groups
[5] = 3 d, before treatment (starts day 17), mPEG-SC20k-HM-3 20 mg/kg groups
[6] = 6 d, before treatment (starts day 17), mPEG-SC20k-HM-3 20 mg/kg groups
[7] = 9 d, before treatment (starts day 17), mPEG-SC20k-HM-3 20 mg/kg groups
[8] = 12 d, before treatment (starts day 17), mPEG-SC20k-HM-3 20 mg/kg groups
[9] = 16 d, before treatment (starts day 17), mPEG-SC20k-HM-3 20 mg/kg groups
[10] = 17 d (treatment starts), mPEG-SC20k-HM-3 20 mg/kg sc
[11] = 19 d, mPEG-SC20k-HM-3 20 mg/kg sc
[12] = 20 d, mPEG-SC20k-HM-3 20 mg/kg sc
[13] = 22 d, mPEG-SC20k-HM-3 20 mg/kg sc
[14] = 23 d, mPEG-SC20k-HM-3 20 mg/kg sc
[15] = 25 d, mPEG-SC20k-HM-3 20 mg/kg sc
[16] = 26 d, mPEG-SC20k-HM-3 20 mg/kg sc
[17] = 28 d, mPEG-SC20k-HM-3 20 mg/kg sc
[18] = 29 d, mPEG-SC20k-HM-3 20 mg/kg sc
[19] = 31 d, mPEG-SC20k-HM-3 20 mg/kg sc
[20] = 32 d, mPEG-SC20k-HM-3 20 mg/kg sc

Substance: Adalimumab [reference compound]
- left ankle swelling ([1]; 1 h): 0.027 ± 0.018 cm
- left foot (palm) swelling ([1]; 1 h): 0.042 ± 0.035 cm
- left toe swelling ([1]; 1 h): 0.094 ± 0.054 cm
- left ankle swelling ([1]; 3 h): 0.008 ± 0.048 cm
- left foot (palm) swelling ([1]; 3 h): 0.071 ± 0.016 cm
- left toe swelling ([1]; 3 h): 0.115 ± 0.018 cm
- left ankle swelling ([1]; 5 h): 0.067 ± 0.010 cm
- left foot (palm) swelling ([1]; 5 h): 0.092 ± 0.014 cm
- left toe swelling ([1]; 5 h): 0.150 ± 0.028 cm
- left ankle swelling ([1]; 7 h): 0.064 ± 0.006 cm
- left foot (palm) swelling ([1]; 7 h): 0.094 ± 0.011 cm
- left toe swelling ([1]; 7 h): 0.126 ± 0.014 cm
- left ankle swelling ([1]; 9 h): 0.045 ± 0.004 cm
- left foot (palm) swelling ([1]; 9 h): 0.088 ± 0.025 cm
- left toe swelling ([1]; 9 h): 0.126 ± 0.021 cm
- left ankle swelling ([1]; 12 h): 0.050 ± 0.003 cm
- left foot (palm) swelling ([1]; 12 h): 0.090 ± 0.031 cm
- left toe swelling ([1]; 12 h): 0.114 ± 0.025 cm
- left ankle swelling ([1]; 24 h): 0.086 ± 0.031 cm
- left foot (palm) swelling ([1]; 24 h): 0.132 ± 0.006 cm
- left toe swelling ([1]; 24 h): 0.235 ± 0.134 cm
- left ankle swelling ([1]; 48 h): 0.105 ± 0.075 cm
- left foot (palm) swelling ([1]; 48 h): 0.152 ± 0.074 cm
- left toe swelling ([1]; 48 h): 0.264 ± 0.122 cm
- left ankle swelling ([1]; 72 h): 0.096 ± 0.051 cm
- left foot (palm) swelling ([1]; 72 h): 0.150 ± 0.066 cm
- left toe swelling ([1]; 72 h): 0.238 ± 0.113 cm
- left ankle swelling ([1]; 96 h): 0.076 ± 0.034 cm
- left foot (palm) swelling ([1]; 96 h): 0.133 ± 0.061 cm
- left toe swelling ([1]; 96 h): 0.174 ± 0.102 cm
- changes of weight (added value) [2, 3]: 0.00 ± 0.00
- left ankle swelling [2, 3]: 0.000 ± 0.000
- left foot (palm) swelling [2, 3]: 0.000 ± 0.000
- left toe swelling [2, 3]: 0.000 ± 0.000
- left ankle swelling [2, 4]: 0.239 ± 0.033
- left foot (palm) swelling [2, 4]: 0.236 ± 0.062
- left toe swelling [2, 4]: 0.326 ± 0.028
- changes of weight (added value) [2, 5]: 0.07 ± 0.15
- left ankle swelling [2, 5]: 0.262 ± 0.071
- left foot (palm) swelling [2, 5]: 0.289 ± 0.016
- left toe swelling [2, 5]: 0.323 ± 0.086
- changes of weight (added value) [2, 6]: 0.09 ± 0.54
- left ankle swelling [2, 6]: 0.226 ± 0.023
- left foot (palm) swelling [2, 6]: 0.272 ± 0.057
- left toe swelling [2, 6]: 0.272 ± 0.076
- changes of weight (added value) [2, 7]: 0.07 ± 0.25
- left ankle swelling [2, 7]: 0.260 ± 0.020
- left foot (palm) swelling [2, 7]: 0.302 ± 0.003
- left toe swelling [2, 7]: 0.298 ± 0.122
- changes of weight (added value) [2, 8]: 0.25 ± 0.83
- left ankle swelling [2, 8]: 0.264 ± 0.018
- left foot (palm) swelling [2, 8]: 0.295 ± 0.021
- left toe swelling [2, 8]: 0.328 ± 0.079
- changes of weight (added value) ([2]; 15 d, before treatment (starts day 17), mPEG-SC20k-HM-3 20 mg/kg groups): 0.16 ± 0.66
- left ankle swelling [2, 9]: 0.265 ± 0.021
- left foot (palm) swelling [2, 9]: 0.271 ± 0.064
- left toe swelling [2, 9]: 0.328 ± 0.065
- right ankle swelling [2, 9]: 0.010 ± 0.006
- right foot palm swelling [2, 9]: 0.010 ± 0.006
- right toe swelling [2, 9]: 0.011 ± 0.033
- joint index score [2, 10]: 7.50 ± 0.70
- whole body (systemic) score [2, 10]: 7.00 ± 1.40
- changes of weight (added value) [2, 11]: 0.44 ± 0.60
- left ankle swelling [2, 11]: 0.254 ± 0.018
- left foot (palm) swelling [2, 11]: 0.247 ± 0.078
- left toe swelling [2, 11]: 0.311 ± 0.033
- right ankle swelling [2, 11]: 0.010 ± 0.014
- right foot palm swelling [2, 11]: 0.029 ± 0.001
- right toe swelling [2, 11]: 0.012 ± 0.037
- joint index score [2, 12]: 7.50 ± 0.70
- whole body (systemic) score [2, 12]: 6.50 ± 2.10
- changes of weight (added value) [2, 13]: 0.62 ± 0.48
- left ankle swelling [2, 13]: 0.235 ± 0.013
- left foot (palm) swelling [2, 13]: 0.249 ± 0.126
- left toe swelling [2, 13]: 0.248 ± 0.136
- right foot palm swelling [2, 13]: 0.004 ± 0.003
- right toe swelling [2, 13]: 0.002 ± 0.042
- joint index score [2, 14]: 8.00 ± 0.00
- whole body (systemic) score [2, 14]: 4.50 ± 2.10
- changes of weight (added value) [2, 15]: 0.55 ± 0.02
- left ankle swelling [2, 15]: 0.218 ± 0.028
- left foot (palm) swelling [2, 15]: 0.234 ± 0.040
- left toe swelling [2, 15]: 0.309 ± 0.058
- right foot palm swelling [2, 15]: 0.013 ± 0.016
- right toe swelling [2, 15]: 0.004 ± 0.040
- joint index score [2, 16]: 6.50 ± 0.70
- whole body (systemic) score [2, 16]: 4.00 ± 1.40
- changes of weight (added value) [2, 17]: 0.77 ± 0.33
- left foot (palm) swelling [2, 17]: 0.258 ± 0.042
- left toe swelling [2, 17]: 0.285 ± 0.075
- right foot palm swelling [2, 17]: 0.008 ± 0.006
- right toe swelling [2, 17]: 0.009 ± 0.035
- joint index score [2, 18]: 6.50 ± 0.70
- whole body (systemic) score [2, 18]: 4.00 ± 1.40
- changes of weight (added value) [2, 19]: 1.02 ± 0.98
- left foot (palm) swelling [2, 19]: 0.235 ± 0.061
- left toe swelling [2, 19]: 0.290 ± 0.023
- right foot palm swelling [2, 19]: 0.010 ± 0.003
- right toe swelling [2, 19]: 0.003 ± 0.021
- joint index score [2, 20]: 6.50 ± 0.70
- whole body (systemic) score [2, 20]: 3.50 ± 0.70
- HE staining of ankle joints: pathological symptoms vs model group ([2]; mPEG-SC20k-HM-3 20 mg/kg): relieved to some extent
- immunohistochemical score of IL-6 in spleen (IL-6): 0.013±0.010
- immunohistochemical score of IL-6 in thymus (IL-6): 0.039±0.041
